Experimental data: patent US20240172750A1, “5-Fluoro-4-Imino-3-Methyl-1-Tosyl-3,4-Dihydropyrimidin-2(1H)-One for Controlling Plant Diseases” (Adama Makhteshim Ltd., priority 2021, published 2024)

Legend:
[1] = tested on: Pseudoperonospora cubensis (downy mildew); assay: Glasshouse trial, downy mildew in cucumber, foliar treatment; type: in vivo; details: cucumber (Bosco); 250 OD at 100, 125, 150, 200 g ai/ha, 3 applications; 21 DA-C
Description: The trial was carried out in a commercial glasshouse in Vittoria (RG)—Sicily region (Southern Italy) to evaluate the efficacy against Pseudoperonospora cubensis (downy mildew) and the selectivity on cucumber (Bosco variety) of ADF-16 250 OD at 100, 125, 150 and 200 g ai/ha in comparison to AIRONE PIU at 630 g ai/ha and EQUATION PRO at 21 g ai/ha.
Each plot (2 m×5 m, 2 rows per plot) consisted of at least 10 plants and 4 replicates per treatment were carried out. The soil used for the trial was a mix of peat and perlite. 3 applications were carried out as follows: A: early curative (disease symptoms lower than 5%), B: 7-10 days from A and C: 7-10 days from B. The corresponding treatments dates were: 16 Nov. 2020 (BBCH 64), 23 Nov. 2020 (BBCH 65) and 30th of November (BBCH 67)
The application was carried out with a backpack sprayer OleomacSP126 and a water volume of 1000 L/ha.
Phytotoxicity, if any, was assessed 7, 14 and 21 days form each application and starting from the first symptoms the percentage of affected leaf area (% severity) as well as the percentage of affected leaves (% incidence) was measured.

[2] = tested on: Colletotrichum dematium var. truncatum; assay: Pot trial, Colletotrichum dematium var. truncatum on soybean; type: in vivo; details: 50-200 g ai/ha
Description: (§2) The inoculation of Corynespora cassiicola and Colletotrichum dematium var. truncatum is done with infected leaves from the field few days after the application.
(§3) To test for fungicidal control against the two necrotrophic diseases, the soybean plants, grown in pots, are sprayed at V2 with each of the above treatments. 5 pots with 3 soybean plants each are considered, each treatment counts for 4 replicates.
(§4) Between 14 and 21 days from the inoculation the severity (%) of the infection is assessed.

Bobwhite quail = assay: Ecotoxicity: birds, acute; type: in vivo
Excerpt: (§1) The ecotoxicity of flumetylsulforim was investigated in numerous studies in accordance with the strict requirements for the approval of active substances in the EU.

Ecotoxicity: fish, acute = details: in vivo, Rainbow trout
Excerpt: as §1

Rainbow trout = assay: Ecotoxicity: fish, long-term; type: in vivo
Excerpt: as §1

[3] = Ecotoxicity: aquatic invertebrates, acute; type: in vivo; details: in vivo, Daphnia magna
Excerpt: as §1

Daphnia magna [4] = assay: Ecotoxicity: aquatic invertebrates, acute; type: in vivo; details: wheats and barley at 2 × 100 g/ha
Excerpt: as §1

Daphnia magna [5] = assay: Ecotoxicity: aquatic invertebrates, long-term; type: in vivo
Excerpt: as §1

Parasitoid wasp = assay: Ecotoxicity: non-target arthropods, reproduction; type: in vivo
Excerpt: as §1

Predatory mite = assay: Ecotoxicity: non-target arthropods, reproduction; type: in vivo; details: wheats and barley at 2 × 100 g/ha
Excerpt: as §1

[6] = tested on: Soil microbial activity (Nitrogen activity); assay: Ecotoxicity: soil microbial activity, long-term
Excerpt: as §1

Carrot [7] = assay: Non-target terrestrial plants, seedling emergence; type: in vivo
Excerpt: as §1

Common oat [8] = assay: Non-target terrestrial plants, seedling emergence; type: in vivo
Excerpt: as §1

Cucumber [9] = assay: Non-target terrestrial plants, seedling emergence; type: in vivo
Excerpt: as §1

Maize [10] = assay: Non-target terrestrial plants, seedling emergence; type: in vivo
Excerpt: as §1

Oil seed rape [11] = assay: Non-target terrestrial plants, seedling emergence; type: in vivo
Excerpt: as §1

Onion [12] = assay: Non-target terrestrial plants, seedling emergence; type: in vivo
Excerpt: as §1

Ryegrass [13] = assay: Non-target terrestrial plants, seedling emergence; type: in vivo
Excerpt: as §1

Soybean [14] = assay: Non-target terrestrial plants, seedling emergence; type: in vivo
Excerpt: as §1

Sugar beet [15] = assay: Non-target terrestrial plants, seedling emergence; type: in vivo
Excerpt: as §1

Sunflower [16] = assay: Non-target terrestrial plants, seedling emergence; type: in vivo
Excerpt: as §1

Carrot [17] = assay: Non-target terrestrial plants, vegetative vigour; type: in vivo
Excerpt: as §1

Common oat [18] = assay: Non-target terrestrial plants, vegetative vigour; type: in vivo
Excerpt: as §1

Cucumber [19] = assay: Non-target terrestrial plants, vegetative vigour; type: in vivo
Excerpt: as §1

Maize [20] = assay: Non-target terrestrial plants, vegetative vigour; type: in vivo
Excerpt: as §1

Oil seed rape [21] = assay: Non-target terrestrial plants, vegetative vigour; type: in vivo
Excerpt: as §1

Onion [22] = assay: Non-target terrestrial plants, vegetative vigour; type: in vivo
Excerpt: as §1

Ryegrass [23] = assay: Non-target terrestrial plants, vegetative vigour; type: in vivo
Excerpt: as §1

Soybean [24] = assay: Non-target terrestrial plants, vegetative vigour; type: in vivo
Excerpt: as §1

Sugar beet [25] = assay: Non-target terrestrial plants, vegetative vigour; type: in vivo
Excerpt: as §1

Sunflower [26] = assay: Non-target terrestrial plants, vegetative vigour; type: in vivo
Excerpt: as §1

[27] = tested on: Microsphaera diffusa (powdery mildew)
Description: Microsphaera diffusa (powdery mildew) is artificially inoculated by spraying the inoculum on the leaves few days after the application.
To test for fungicidal control of Microsphaera diffusa (powdery mildew), the soybean plants, grown in pots, are sprayed at V2 with each of the above treatments. 5 pots with 3 soybean plants each are considered, each treatment counts for 4 replicates.
Between 14 and 21 days from the inoculation, the severity (%) of the infection is assessed.

[28] = wheats and barley at 2 × 100 g/ha

Description for Cercospora kikushi: The trial is carried out in open field and no artificial inoculation is performed.
To test for fungicidal control against the late season disease, each plot (3 m×5 m) is sprayed with one of the treatments from Table 17. Each treatment is made of 4 replicates.
Three applications are made, the first approximately 14 days before flowering followed by a second one at R1 and the third at R1+14 days. A fourth application is considered based on the development of the disease.
Assessments are done before all sprays and at 7, 14 and 21 days after the last spray. The whole plot is assessed considering the 3 plant parts (bottom, mid and upper). The final grade is the mean of the 3 scores (bottom, mid and upper).
The whole plot is assessed for defoliation. The defoliation assessment takes place at R6-R7 stage when the untreated control reaches 80 to 90% defoliation. The harvest assessment is done from the middle of the plot covering at least 8 m 2/plot.
Description for Corynespora cassiicola: as §2, §3, §4
Description for Ramularia areola: The objective of the trial is to assess the fungicidal effect of ADF-16 against Ramularia areola on cotton, compared to an untreated control and a reference product.
ADF-16 is tested at different doses, namely at 50, 100, 150 and 200 g ai/ha as depicted in the table below.
Ramularia areola is artificially inoculated by spraying the conidia on the plants, previously sprayed with the fungicide.
To test for fungicidal control of Ramularia areola, the cotton plants, grown in pots, are sprayed at first true leaf fully open with each of the above treatments. 5 pots with 3 cotton plants each are considered, each treatment counts for 4 replicates.
Between 25 and 30 days from the inoculation the severity (%) of the infection is assessed.

In the case of `Cc1ccc(S(=O)(=O)n2cc(F)c(=N)n(C)c2=O)cc1` [compound of formula I, 5-fluoro-4-imino-3-methyl-1-tosyl-3,4-dihydropyrimidin-2(1H)-one], the “control of the disease (downy mildew)” value [1] is reported as “significant control of the disease”, the “control of Colletotrichum dematium var. truncatum” value [2] is reported as “effectively controls” and the LD50 (Bobwhite quail) is reported as “LD50 > 2000 mg/kg bw”. The LC50 (Ecotoxicity: fish, acute) was 5.41 µg/mL, the NOEC (Rainbow trout) was “NOEC = 0.128 mg/L” and the “Risk at current use pattern” value (Rainbow trout; [28]) was “Acceptable”. For the same molecule, the EC50 [3] was over 10 µg/mL, the “Risk at current use pattern” value (Daphnia magna [4]) was “Acceptable” and the NOEC (Daphnia magna [5]) was “NOEC = 0.32 mg/L”. For the same molecule, the “Risk at current use pattern” value (Daphnia magna [5]; [28]) was “Acceptable”, the LR50 (Parasitoid wasp) was “LR50 > 189 g/ha” and the “Risk at current use pattern” value (Parasitoid wasp; [28]) was “Acceptable”. The “Risk at current use pattern” value (Predatory mite) was “Acceptable”, the “Ecotoxicity endpoint (nitrogen activity)” value ([6]; soil microbial activity) was over 10.3 mg/kg dws and the “Risk at current use pattern” value ([6]; soil microbial nitrogen activity, wheats and barley at 2 × 100 g/ha) was “Acceptable”. For the same molecule, the ER50 (Carrot [7]) was “ER50 > 189 g/ha”, the “Risk at current use pattern” value (Carrot [7]; [28]) was “Acceptable” and the ER50 (Common oat [8]) was “ER50 > 189 g/ha”. The “Risk at current use pattern” value (Common oat [8]; [28]) was “Acceptable”, the ER50 (Cucumber [9]) was “ER50 > 189 g/ha” and the “Risk at current use pattern” value (Cucumber [9]; [28]) was “Acceptable”. For the same molecule, the ER50 (Maize [10]) was “ER50 > 189 g/ha”, the “Risk at current use pattern” value (Maize [10]; [28]) was “Acceptable” and the ER50 (Oil seed rape [11]) was “ER50 > 189 g/ha”. The “Risk at current use pattern” value (Oil seed rape [11]; [28]) was “Acceptable”, the ER50 (Onion [12]) was “ER50 > 189 g/ha” and the “Risk at current use pattern” value (Onion [12]; [28]) was “Acceptable”. The ER50 (Ryegrass [13]) was “ER50 > 189 g/ha”, the “Risk at current use pattern” value (Ryegrass [13]; [28]) was “Acceptable” and the ER50 (Soybean [14]) was “ER50 > 189 g/ha”. For the same molecule, the “Risk at current use pattern” value (Soybean [14]; [28]) was “Acceptable”, the ER50 (Sugar beet [15]) was “ER50 > 189 g/ha” and the “Risk at current use pattern” value (Sugar beet [15]; [28]) was “Acceptable”. For the same molecule, the ER50 (Sunflower [16]) was “ER50 > 189 g/ha”, the “Risk at current use pattern” value (Sunflower [16]; [28]) was “Acceptable” and the ER50 (Carrot [17]) was “ER50 > 189 g/ha”. For the same molecule, the “Risk at current use pattern” value (Carrot [17]; [28]) was “Acceptable”, the ER50 (Common oat [18]) was “ER50 > 189 g/ha” and the “Risk at current use pattern” value (Common oat [18]; [28]) was “Acceptable”. For the same molecule, the ER50 (Cucumber [19]) was “ER50 > 189 g/ha”, the “Risk at current use pattern” value (Cucumber [19]; [28]) was “Acceptable” and the ER50 (Maize [20]) was “ER50 > 189 g/ha”. For the same molecule, the “Risk at current use pattern” value (Maize [20]; [28]) was “Acceptable”, the ER50 (Oil seed rape [21]) was “ER50 > 189 g/ha” and the “Risk at current use pattern” value (Oil seed rape [21]; [28]) was “Acceptable”. The ER50 (Onion [22]) was “ER50 > 189 g/ha”, the “Risk at current use pattern” value (Onion [22]; [28]) was “Acceptable” and the ER50 (Ryegrass [23]) was “ER50 > 189 g/ha”. For the same molecule, the “Risk at current use pattern” value (Ryegrass [23]; [28]) was “Acceptable”, the ER50 (Soybean [24]) was “ER50 > 189 g/ha” and the “Risk at current use pattern” value (Soybean [24]; [28]) was “Acceptable”. For the same molecule, the ER50 (Sugar beet [25]) was “ER50 > 189 g/ha”, the “Risk at current use pattern” value (Sugar beet [25]; [28]) was “Acceptable” and the ER50 (Sunflower [26]) was “ER50 > 189 g/ha”. The “Risk at current use pattern” value (Sunflower [26]; [28]) was “Acceptable”, the phytotoxicity ([27]; in vivo) was “no significant phytotoxicity” and the “control of Microsphaera diffusa” value ([27]; soybean, 50-200 g ai/ha) was “effectively controls”. For the same molecule, the “control of Ramularia areola” value (Ramularia areola; cotton, 50-200 g ai/ha) was “effectively controls”, the phytotoxicity (Ramularia areola; in vivo) was “no significant phytotoxicity” and the phytotoxicity (Corynespora cassiicola; in vivo) was “no significant phytotoxicity”. For the same molecule, the “control of Corynespora cassiicola” value (Corynespora cassiicola; soybean, 50-200 g ai/ha) was “effectively controls”, the phytotoxicity (Cercospora kikushi; in vivo) was “no significant phytotoxicity” and the “control of Cercospora kikushi” value (Cercospora kikushi; soybean, 50, 100 and 200 g ai/ha) was “effectively controls”.
